Among the data in ChEMBL document CHEMBL1152184, “A micellar prodrug of paclitaxel conjugated to cyclotriphosphazene” (Bioorg Med Chem Lett, 2008) are IC50 values, retold here.

The test system of this assay is A-431. The assay can be described thus: Cytotoxicity against human A431 cells after 72 hrs by SRB method. The format is functional, cell-based. Conditions: A-431, 72 h. (In SRB staining, fixed cells bind dye roughly in proportion to their protein.)

A word on the IC50: it is the concentration at which inhibition is half-maximal. Read a high IC50 as weaker potency in that assay.

As for `CC(=O)O[C@H]1C(=O)[C@@]2(C)[C@H]([C@H](OC(=O)c3ccccc3)[C@]3(O)C[C@H](OC(=O)[C@H](O)[C@@H](NC(=O)c4ccccc4)c4ccccc4)C(C)=C1C3(C)C)[C@]1(OC(C)=O)CO[C@@H]1C[C@@H]2O` [PACLITAXEL], the concentration for half-maximal inhibition (IC50) is 25.1 nM. This counts as double-digit nanomolar.
